Experimental data taken from US20020161194A1, “Cannine androgen receptor” (priority 2000, published 2002).

System: canine androgen receptor
Conditions: DHT 10^−7 M, 24 hr, control A293S cells lacking the canine AR
Excerpt: Control plates were transfected with all plasmids except canine AR. […] Luciferase activity was normalized for transfection efficiency using β-galactosidase activity.
Control plates were transfected with all the same plasmids except canine AR. […] Cells were harvested 24 hr after compound addition and analyzed for luciferase activity (Luciferase Assay System, Promega, Madison, Wis.) and β-galactosidase activity (Galacto-Star, Tropix, Inc., Bedford, Mass.). Data is expressed as fold induction of luciferase activity as compared to vehicle, following normalization for transfection efficiency using β-galactosidase activity.

SMILES: C[C@]12CCC(=O)C[C@@H]1CC[C@@H]1[C@@H]2CC[C@]2(C)[C@@H](O)CC[C@@H]12 [DHT, 5α-androstan-17β-ol-3-one]
- induction of luciferase activity compared to vehicle: no induction
